Results from ChEMBL document CHEMBL4011592, “Synthesis and evaluation of 7-substituted-5,6-dihydrobenzo[c]acridine derivatives as new c-KIT promoter G-quadruplex binding ligands” (Eur J Med Chem, 2017).
Calls of active or inactive are those of the source. No cut-off for these calls is given here.

Experiments:
[1] = Binding affinity to 5'-FAM/3'-TAMARA labelled c-KIT2 G-quadruplex DNA (unknown origin) assessed as change in melting temperature at 1 uM by FRET assay
[2] = Binding affinity to 5'-FAM/3'-TAMARA labelled c-KIT1 G-quadruplex DNA (unknown origin) assessed as change in melting temperature at 1 uM by FRET assay
A549 = assay: Cytotoxicity against human A549 cells after 48 hrs by MTT assay; assay type: functional, cell-based; conditions: A549, 48 h
BJ = assay: Cytotoxicity against human BJ cells after 48 hrs by MTT assay; assay type: cell-based
HeLa = assay: Cytotoxicity against human HeLa cells after 48 hrs by MTT assay; assay type: functional, cell-based
[3] = Binding affinity to 5'-FAM/3'-TAMARA labelled c-KIT1 G-quadruplex DNA (unknown origin) assessed as change in melting temperature at 2 uM in presence ds26 DNA by FRET assay
[4] = Binding affinity to 5'-FAM/3'-TAMARA labelled c-KIT1 G-quadruplex DNA (unknown origin) assessed as change in melting temperature at 2 uM by FRET assay
K562 = assay: Cytotoxicity against human K562 cells after 48 hrs by MTT assay; assay type: functional, cell-based; conditions: K562, 48 h
[5] = Binding affinity to F10T duplex DNA (unknown origin) assessed as change in melting temperature at 1 uM by FRET assay
[6] = Binding affinity to biotinylated c-KIT1 G-quadruplex DNA (unknown origin) by SPR assay
[7] = Binding affinity to F10T duplex DNA (unknown origin) assessed as change in melting temperature at 2 uM by FRET assay
[8] = Binding affinity to biotinylated duplex DNA (unknown origin) by SPR assay
[9] = Selectivity ratio of Kd for biotinylated duplex DNA (unknown origin) to Kd for biotinylated c-KIT1 G-quadruplex DNA (unknown origin)
[10] = Binding affinity to c-KIT1 G-quadruplex DNA (unknown origin) assessed as isosbestic point at 10 uM measured after 10 mins by UV-vis spectroscopic method
[11] = Binding affinity to c-KIT1 G-quadruplex DNA (unknown origin) assessed as ability to promote c-KIT G-rich sequences to form parallel G-quadruplex at 25 uM in absence of KCl measured after 10 mins by CD-spectroscopic analysis
[12] = Binding affinity to c-KIT2 G-quadruplex DNA (unknown origin) assessed as ability to promote c-KIT G-rich sequences to form parallel G-quadruplex at 25 uM in absence of KCl measured after 10 mins by CD-spectroscopic analysis
[13] = Binding affinity to c-KIT2 G-quadruplex DNA (unknown origin) assessed as maintainance of parallel c-KIT G-quadruplex conformation at 5 uM in presence of KCl measured after 10 mins by CD-spectroscopic analysis
[14] = Binding affinity to c-KIT1 G-quadruplex DNA (unknown origin) assessed as red shift at 10 uM measured after 10 mins by UV-vis spectroscopic method
[15] = Binding affinity to c-KIT1 G-quadruplex DNA (unknown origin) measured after 10 mins by UV-vis spectroscopic method
[16] = Binding affinity to c-KIT1 G-quadruplex DNA (unknown origin) assessed as 1:1 binding stoichiometry between compound and G-quadruplex DNA by Job's plot method
[17] = Binding affinity to c-KIT1 G-quadruplex DNA (unknown origin) assessed as maintainance of parallel c-KIT G-quadruplex conformation at 5 uM in presence of KCl measured after 10 mins by CD-spectroscopic analysis
[18] = Binding affinity to c-KIT1 G-quadruplex DNA (unknown origin) assessed as 1:1 binding stoichiometry between compound and G-quadruplex DNA 10 uM by ESI-MS spectra analysis
[19] = Binding affinity to c-KIT1 G-quadruplex DNA (unknown origin) assessed as hyperchromicity at 10 uM measured after 10 mins by UV-vis spectroscopic method
[20] = Binding affinity to c-KIT1 G-quadruplex DNA (unknown origin) assessed as hyperchromicity at 5 uM measured after 10 mins by fluorescence spectroscopic method

SMILES	ΔTm [1]	ΔTm [2]	IC50 (A549)	IC50 (BJ)	IC50 (HeLa)	Activity [3]	ΔTm [4]	IC50 (K562)	ΔTm [5]	Kd [6]	ΔTm [7]	Kd [8]	Selectivity ratio [9]	other results
COc1cc2c(cc1OC)-c1nc3ccccc3c(NCCCN(C)C)c1CC2	9 °C	12.3 °C	3.6 µM	4.2 µM	5.1 µM	Active	20.4 °C	6.7 µM	1.3 °C	3.5 µM	2.3 °C	> 20 µM	> 5.7	
COc1cc2c(cc1OC)-c1nc3ccccc3c(NCCCN3CCN(C)CC3)c1CC2	8.6 °C	18.7 °C	6.4 µM	13.7 µM	9.6 µM	Active	22.9 °C	4.2 µM	1.3 °C	2.8 µM	1.6 °C	> 20 µM	> 7.1	
COc1cc2c(cc1OC)-c1nc3ccccc3c(Cl)c1CC2	0.1 °C	0.1 °C					0.2 °C		0.7 °C	> 20 µM	0.1 °C	> 20 µM		
COc1cc2c(cc1OC)-c1nc3ccccc3c(NCCCN3CCCC3)c1CC2	8.6 °C	10.8 °C	3.9 µM	6.7 µM	4.3 µM	Active	20.5 °C	4.2 µM	1.1 °C	2.9 µM	2.9 °C	> 20 µM	> 6.9	
COc1cc2c(cc1OC)-c1nc3ccccc3c(NCCCN3CCCCC3)c1CC2	8.1 °C	11.6 °C	4.4 µM	12.3 µM	9.9 µM	Active	20.2 °C	3.9 µM	1.4 °C	3.9 µM	2.1 °C	> 20 µM	> 5.1	
COc1cc2c(cc1OC)-c1nc3ccccc3c(C(=O)NCCCN3CCCCC3)c1CC2	0.6 °C	3.3 °C	> 50 µM	> 50 µM	> 50 µM		5.2 °C	> 50 µM	0.3 °C	3.7 µM	0.6 °C	> 20 µM	> 5.4	
COc1cc2c(cc1OC)-c1c(cc3c(OCCCN4CCCCC4)c(OC)ccc3[n+]1C)CC2	4.4 °C	4.4 °C				Active	12.2 °C		0.2 °C	2.8 µM	0.7 °C	> 20 µM	> 7.1	
COc1cc2c(cc1OC)-c1c(c(NCCCN(C)C)c3ccccc3[n+]1C)CC2	3.7 °C	8.6 °C	> 50 µM	> 50 µM	> 50 µM	Active	10.7 °C	> 50 µM	0.8 °C	5.8 µM	0.3 °C	> 20 µM	> 3.4	
COc1cc2c(cc1OC)-c1nc3ccccc3c(NCCN(C)C)c1CC2	6.7 °C	12.1 °C	5.6 µM	19 µM	11.7 µM	Active	16.4 °C	25.8 µM	0.7 °C	4.2 µM	0.9 °C	9.4 µM	2.2	
COc1cc2c(cc1OC)-c1nc3ccccc3c(NCCN3CCN(C)CC3)c1CC2	9 °C	17.4 °C	3 µM	7.9 µM	5.3 µM	Active	22.6 °C	22.9 µM	1.7 °C	3.3 µM	2 °C	17 µM	5.2	
CCN(CC)CCCNC(=O)c1c2c(nc3ccccc13)-c1cc(OC)c(OC)cc1CC2	0.6 °C	3.4 °C	> 50 µM	> 50 µM	> 50 µM		6.6 °C	> 50 µM	0.5 °C	2.8 µM	0.5 °C	> 20 µM	> 7.1	
CCN(CC)CCNc1c2c([n+](C)c3ccccc13)-c1cc(OC)c(OC)cc1CC2	3.3 °C	8.5 °C	> 50 µM	> 50 µM	> 50 µM	Active	10.3 °C	24.9 µM	0.9 °C	3.9 µM	0.5 °C	> 20 µM	> 5.1	
COc1cc2c(cc1OC)-c1c(c(NCCN3CCCC3)c3ccccc3[n+]1C)CC2	3.7 °C	7.7 °C	36 µM	36 µM	44.3 µM	Active	11.3 °C	> 50 µM	0.9 °C	2.2 µM	0.4 °C	> 20 µM	> 9.1	
CCN(CC)CCCNc1c2c([n+](C)c3ccccc13)-c1cc(OC)c(OC)cc1CC2	3.6 °C	7.5 °C	> 50 µM	> 50 µM	> 50 µM	Active	10.8 °C	37.1 µM	0.9 °C	7.4 µM	0.4 °C	> 20 µM	> 2.7	Activity [10]: Active; Activity [11]: Active; Activity [12]: Active; Activity [13]: Active; Activity [14]: Active; Kd [15]: 9.1 µM; Activity [16]: Active; Activity [17]: Active; Activity [18]: Active; Activity [19]: Active; Activity [20]: Active
COc1cc2c(cc1OC)-c1nc3ccccc3c(NCCN3CCCCC3)c1CC2	2.6 °C	4.7 °C	18.5 µM	> 50 µM	39.7 µM	Active	7.8 °C	13.1 µM	0.1 °C	7.8 µM	0.2 °C	> 20 µM	> 2.6	
COc1cc2c(cc1OC)-c1nc3ccccc3c(C(=O)NCCN3CCCC3)c1CC2	0.6 °C	2.2 °C	> 50 µM	> 50 µM	> 50 µM		3.4 °C	> 50 µM	0.1 °C	> 20 µM	0.6 °C	> 20 µM		
CCN(CC)CCNc1c2c(nc3ccccc13)-c1cc(OC)c(OC)cc1CC2	6.5 °C	9.8 °C	5.8 µM	22.7 µM	17.9 µM	Active	15.7 °C	8 µM	0.6 °C	2.7 µM	0.9 °C	5.9 µM	2.2	
COc1cc2c(cc1OC)-c1nc3ccccc3c(NCCN3CCCC3)c1CC2	6.2 °C	11.1 °C	2.8 µM	5.2 µM	4.6 µM	Active	16.7 °C	4.8 µM	0.8 °C	2.5 µM	1.2 °C	7.7 µM	3.1	
COc1cc2c(cc1OC)-c1c(c(NCCN(C)C)c3ccccc3[n+]1C)CC2	2.8 °C	6.7 °C	> 50 µM	> 50 µM	> 50 µM	Active	7.4 °C	33.5 µM	0.8 °C	8 µM	0.3 °C	> 20 µM	> 2.5	
COc1cc2c(cc1OC)-c1c(c(NCCCN3CCCC3)c3ccccc3[n+]1C)CC2	4.7 °C	10.7 °C	> 50 µM	> 50 µM	> 50 µM	Active	14 °C	19.2 µM	1.1 °C	3.3 µM	0.3 °C	> 20 µM	> 6.1	
